Activity calls are given as the source filed them. No cut-off for these calls is given here.

In test [1] the test system is Mycolicibacterium smegmatis. Briefly: Activity of AftB in Mycobacterium smegmatis membrane/p60 fraction assessed as incorporation of DP[3H]A to compound to generate biotinylated trisaccharide with beta-(1 to 2) Araf residue by SPA assay.
The test system of test [2] is Mycolicibacterium smegmatis. Briefly: Activity of AftB in Mycobacterium smegmatis membrane assessed as formation of biosynthetic products by TLC based assay. It is filed as cell membranes.

A word on the Km: it is the substrate concentration at which the rate is half of its maximum. On to `O=C(CCCC[C@@H]1SC[C@@H]2NC(=O)N[C@@H]21)NCCSCCCCCO[C@H]1O[C@H](CO[C@H]2O[C@H](CO)[C@@H](O)[C@@H]2O)[C@@H](O)[C@@H]1O`, for which the Km in test [1] worked out at 40.9 µM.

As for `C=CCCCO[C@H]1O[C@H](CO[C@H]2O[C@H](CO[C@H]3O[C@H](CO[C@H]4O[C@H](CO)[C@@H](O)[C@@H]4O)[C@@H](O)[C@@H]3O)[C@@H](O)[C@@H]2O)[C@@H](O)[C@@H]1O`, the result in test [2] was Active.

As for `C=CCCCO[C@H]1O[C@H](CO[C@H]2O[C@H](CO)[C@@H](O)[C@@H]2O)[C@@H](O)[C@@H]1O`, the result in test [2] was Active.

With `C=CCCCO[C@H]1O[C@H](CO[C@H]2O[C@H](CO[C@H]3O[C@H](CO)[C@@H](O)[C@@H]3O)[C@@H](O)[C@@H]2O)[C@@H](O)[C@@H]1O`, the result in test [2] was Active.

The values above are taken from ChEMBL document CHEMBL1811849, “Development of a plate-based scintillation proximity assay for the mycobacterial AftB enzyme involved in cell wall arabinan biosynthesis” (Bioorg Med Chem, 2010).
